# Laboratory results reported in PubChem BioAssay AID1918932 (Molecular Pharmacology Branch, DTP, NCI, 2023).
# Tested on: 171881-019-R-J1-PDC complex spheroid viability
# Assay: Anticancer human tumor 171881-019-R-J1-PDC patient-derived invasive breast carcinoma cell line growth inhibition
# Conditions: for IC50: curve of first compound; for viability, T/C: stronger effect = lower value
# How it was run: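 Multicellular complex spheroids of tumor cells with human endothelial cells (HUVEC) and mesenchymal stem cells; the LSD1 inhibitor iadademstat was combined with standard-of-care or investigational agents. Top concentration at or near clinical Cmax, half-log dilutions; final DMSO ≤0.25%.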
# [1] = second compound 0.1 µM, first compound 0.0316 µM
# [2] = second compound 0.1 µM, first compound 0.1 µM
# [3] = second compound 0.316 µM, first compound 0.0316 µM
# [4] = second compound 0.316 µM, first compound 0.1 µM
# [5] = second compound 1 µM, first compound 0.0316 µM
# [6] = second compound 1 µM, first compound 0.1 µM
# [7] = second compound 3.16 µM, first compound 0.0316 µM
# [8] = second compound 3.16 µM, first compound 0.1 µM
# [9] = second compound 10 µM, first compound 0.0316 µM
# [10] = second compound 10 µM, first compound 0.1 µM
# 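Further: spheroids exposed to agents for 7 days after 3 days growth.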
smiles,measurement,setting,value
CC(C)CC(NC(=O)CNC(=O)c1cc(Cl)ccc1Cl)B1OC(=O)CC(CC(=O)O)(C(=O)O)O1 (stereo not given) + NC1CC1c1ccc(-c2cccc(O)c2)cc1,IC50,second compound 0.1 µM,0.885 nM
same,IC50,second compound 0.316 µM,1.06 nM
same,IC50,second compound 1 µM,0.719 nM
same,IC50,second compound 3.16 µM,< 0.316 nM
same,IC50,second compound 10 µM,< 0.316 nM
same,"viability, T/C","second compound 0.1 µM, first compound 0.000316 µM",95%
same,"viability, T/C","second compound 0.1 µM, first compound 0.001 µM",35.5%
same,"viability, T/C","second compound 0.1 µM, first compound 0.00316 µM",38.4%
same,"viability, T/C","second compound 0.1 µM, first compound 0.01 µM",23%
same,"viability, T/C",[1],5.32%
same,"viability, T/C",[2],15.9%
same,"viability, T/C","second compound 0.316 µM, first compound 0.000316 µM",91.9%
same,"viability, T/C","second compound 0.316 µM, first compound 0.001 µM",49.9%
same,"viability, T/C","second compound 0.316 µM, first compound 0.00316 µM",28.8%
same,"viability, T/C","second compound 0.316 µM, first compound 0.01 µM",24.4%
same,"viability, T/C",[3],13.9%
same,"viability, T/C",[4],11.5%
same,"viability, T/C","second compound 1 µM, first compound 0.000316 µM",76.5%
same,"viability, T/C","second compound 1 µM, first compound 0.001 µM",39.3%
same,"viability, T/C","second compound 1 µM, first compound 0.00316 µM",16.2%
same,"viability, T/C","second compound 1 µM, first compound 0.01 µM",8.02%
same,"viability, T/C",[5],11.6%
same,"viability, T/C",[6],5.3%
same,"viability, T/C","second compound 3.16 µM, first compound 0.000316 µM",43.9%
same,"viability, T/C","second compound 3.16 µM, first compound 0.001 µM",42.6%
same,"viability, T/C","second compound 3.16 µM, first compound 0.00316 µM",6.48%
same,"viability, T/C","second compound 3.16 µM, first compound 0.01 µM",6.09%
same,"viability, T/C",[7],12.3%
same,"viability, T/C",[8],12.9%
same,"viability, T/C","second compound 10 µM, first compound 0.000316 µM",19.6%
same,"viability, T/C","second compound 10 µM, first compound 0.001 µM",24.7%
same,"viability, T/C","second compound 10 µM, first compound 0.00316 µM",1.13%
same,"viability, T/C","second compound 10 µM, first compound 0.01 µM",4.15%
same,"viability, T/C",[9],4.16%
same,"viability, T/C",[10],4.12%
CC1(C)CCC(CN2CCN(c3ccc(C(=O)NS(=O)(=O)c4ccc(NCC5CCOCC5)c([N+](=O)[O-])c4)c(Oc4cnc5[nH]ccc5c4)c3)CC2)=C(c2ccc(Cl)cc2)C1 + NC1CC1c1ccc(-c2cccc(O)c2)cc1,IC50,second compound 0.1 µM,1410 nM
same,IC50,second compound 0.316 µM,1490 nM
same,IC50,second compound 1 µM,1450 nM
same,IC50,second compound 3.16 µM,1450 nM
same,IC50,second compound 10 µM,1300 nM
same,"viability, T/C",[1],101%
same,"viability, T/C",[2],97.9%
same,"viability, T/C","second compound 0.1 µM, first compound 0.316 µM",87.8%
same,"viability, T/C","second compound 0.1 µM, first compound 1 µM",63%
same,"viability, T/C","second compound 0.1 µM, first compound 3.16 µM",21.7%
same,"viability, T/C","second compound 0.1 µM, first compound 10 µM",9.08%
same,"viability, T/C",[3],103%
same,"viability, T/C",[4],95.7%
same,"viability, T/C","second compound 0.316 µM, first compound 0.316 µM",92.3%
same,"viability, T/C","second compound 0.316 µM, first compound 1 µM",64.4%
same,"viability, T/C","second compound 0.316 µM, first compound 3.16 µM",22.9%
same,"viability, T/C","second compound 0.316 µM, first compound 10 µM",4.28%
same,"viability, T/C",[5],103%
same,"viability, T/C",[6],102%
same,"viability, T/C","second compound 1 µM, first compound 0.316 µM",88.4%
same,"viability, T/C","second compound 1 µM, first compound 1 µM",64.2%
same,"viability, T/C","second compound 1 µM, first compound 3.16 µM",22.3%
same,"viability, T/C","second compound 1 µM, first compound 10 µM",4%
same,"viability, T/C",[7],94.5%
same,"viability, T/C",[8],92.7%
same,"viability, T/C","second compound 3.16 µM, first compound 0.316 µM",86.3%
same,"viability, T/C","second compound 3.16 µM, first compound 1 µM",63.2%
same,"viability, T/C","second compound 3.16 µM, first compound 3.16 µM",22.8%
same,"viability, T/C","second compound 3.16 µM, first compound 10 µM",4.22%
same,"viability, T/C",[9],84.5%
same,"viability, T/C",[10],82.5%
same,"viability, T/C","second compound 10 µM, first compound 0.316 µM",77.1%
same,"viability, T/C","second compound 10 µM, first compound 1 µM",59%
same,"viability, T/C","second compound 10 µM, first compound 3.16 µM",21.2%
same,"viability, T/C","second compound 10 µM, first compound 10 µM",3.96%
Nc1ccccc1NC(=O)c1ccc(CNC(=O)OCc2cccnc2)cc1 + NC1CC1c1ccc(-c2cccc(O)c2)cc1,IC50,second compound 0.1 µM,525 nM
same,IC50,second compound 0.316 µM,530 nM
same,IC50,second compound 1 µM,520 nM
same,IC50,second compound 3.16 µM,481 nM
same,IC50,second compound 10 µM,441 nM
same,"viability, T/C","second compound 0.1 µM, first compound 0.00949 µM",101%
same,"viability, T/C","second compound 0.1 µM, first compound 0.03 µM",96.2%
same,"viability, T/C","second compound 0.1 µM, first compound 0.0949 µM",107%
same,"viability, T/C","second compound 0.1 µM, first compound 0.3 µM",89.4%
same,"viability, T/C","second compound 0.1 µM, first compound 0.949 µM",8.16%
same,"viability, T/C","second compound 0.1 µM, first compound 3 µM",0.69%
same,"viability, T/C","second compound 0.316 µM, first compound 0.00949 µM",104%
same,"viability, T/C","second compound 0.316 µM, first compound 0.03 µM",102%
same,"viability, T/C","second compound 0.316 µM, first compound 0.0949 µM",109%
same,"viability, T/C","second compound 0.316 µM, first compound 0.3 µM",90.8%
same,"viability, T/C","second compound 0.316 µM, first compound 0.949 µM",8.21%
same,"viability, T/C","second compound 0.316 µM, first compound 3 µM",0.84%
same,"viability, T/C","second compound 1 µM, first compound 0.00949 µM",101%
same,"viability, T/C","second compound 1 µM, first compound 0.03 µM",103%
same,"viability, T/C","second compound 1 µM, first compound 0.0949 µM",107%
same,"viability, T/C","second compound 1 µM, first compound 0.3 µM",88.6%
same,"viability, T/C","second compound 1 µM, first compound 0.949 µM",7.91%
same,"viability, T/C","second compound 1 µM, first compound 3 µM",0.77%
same,"viability, T/C","second compound 3.16 µM, first compound 0.00949 µM",100%
same,"viability, T/C","second compound 3.16 µM, first compound 0.03 µM",102%
same,"viability, T/C","second compound 3.16 µM, first compound 0.0949 µM",90.8%
same,"viability, T/C","second compound 3.16 µM, first compound 0.3 µM",80.6%
same,"viability, T/C","second compound 3.16 µM, first compound 0.949 µM",6.04%
same,"viability, T/C","second compound 3.16 µM, first compound 3 µM",0.79%
same,"viability, T/C","second compound 10 µM, first compound 0.00949 µM",88%
same,"viability, T/C","second compound 10 µM, first compound 0.03 µM",82.6%
same,"viability, T/C","second compound 10 µM, first compound 0.0949 µM",82.3%
same,"viability, T/C","second compound 10 µM, first compound 0.3 µM",70.9%
same,"viability, T/C","second compound 10 µM, first compound 0.949 µM",8.68%
same,"viability, T/C","second compound 10 µM, first compound 3 µM",0.61%
